# Measurements taken from US7119229B2 (priority 2001, dated 2006).
# Read-outs that look alike come from different tables or passages of the source.
# Legend:
# TA100 = tested on: TA100
# Procedure: (§1) This assay is carried out to test mutagenicity of chemical substances using histidine auxotrophic strains that are one of Salmonella Typhimurium mutants. […] When various mutagens are added to the culture medium, only revertants generated by reverse mutation survive.
# (§2) Ames test was carried out using […]. […] After incubation, the number of revertant colonies was counted. 3 plates were prepared for each test and the average was calculated.
# TA1535 = tested on: TA1535
# Procedure: as §1, §2
# [1] = tested on: BALB/c mouse spleen cell (responding) and DBA/2 mouse spleen cell (stimulating); type: cell-based
# Procedure: MLR tests were carried out to determine the immunosuppressive effect of an immunosuppressive candidate material. When a responding cell (BALB/c mouse spleen cell) and a stimulating cell (DBA/2 mouse spleen cell) were cultured separately, the cells grew little. On the contrary, when the cells were simultaneously cultured, the cells were proliferated due to induction of an antigen-antibody reaction. The proliferated cells were treated with the immunosuppressive candidate material for measurement of the proliferation inhibitory extent.
# After culturing for 72 hours at a CO2 incubator, a 20 μl MTS solution was added to each well, followed by further culturing for 2 to 4 hours and measuring OD at […] by using ELISA.
# TA98 = tested on: TA98
# Procedure: as §1, §2
# TA1537 = experiment: Reverse mutation assay (Ames test), TA1537
# Procedure: as §1, §2
# [2] = tested on: WP2 uvrA strains (tryptophan auxotrophic strains); experiment: Reverse mutation assay (Ames test), E. coli WP2 uvrA
# Procedure: as §1, §2
# ICR mice [3] = experiment: Oral administration toxicity assay; settings: for Days for the test (death) Total: deaths/mice; for Days for the Test (death) 4: day 4
# ICR mice [4] = experiment: Acute (intravenous administration) toxicity assay; settings: for Days for the test (death) 2: day 2; for Days for the test (death) Total: deaths/mice; for Days for the test (death) 1: day 1
# [5] = Positive control group, TA100, 0.5 μg/Plate
# [6] = Positive control group, TA1535, 0.5 μg/Plate
# [7] = TA1525 (so in the source), 317.5 μg/Plate
# [8] = TA1525 (so in the source), 625 μg/Plate
# [9] = TA1525 (so in the source), 1250 μg/Plate
# [10] = TA1525 (so in the source), 2500 μg/Plate
# [11] = TA1525 (so in the source), 5000 μg/Plate
# [12] = Positive control group, TA1537, 50 μg/Plate
smiles,measurement,setting,value
"[N-]=[N+]=[N-] [Sodium azide, sodium azide]",Colony/Plate S-9 Mixture (+),TA100; [5],616 Colony/Plate
same,Colony/Plate S-9 Mixture (−),TA100; [5],453 Colony/Plate
same,Colony/Plate S-9 Mixture (+),TA1535; [6],444 Colony/Plate
same,Colony/Plate S-9 Mixture (−),TA1535; [6],279 Colony/Plate
"COc1cc2c(c(OC)c1OC)-c1ccc(S(C)(=O)=O)c(=O)cc1C(NC(=O)CCCO[N+](=O)[O-])CC2 (stereo not drawn) [Compound 10, 4-nitrooxy-N-(1,2,3-trimethoxy-10-methylsulfonyl-9-oxo-5,6,7,9-tetrahydro-benzo[a]heptarene-7-yl)-butylamide]",immunosuppressive effect,"[1]; MLR, FIG. 1",good immunosuppressive effect
COc1cc2c(c(OC)c1OC)-c1ccc(OC)c(=O)cc1[C@@H](NC(C)=O)CC2 [Colchicine],Colony/Plate S-9 Mixture (+),"TA100; TA100, 317.5 μg/Plate",79 Colony/Plate
same,Colony/Plate S-9 Mixture (−),"TA100; TA100, 317.5 μg/Plate",115 Colony/Plate
same,Colony/Plate S-9 Mixture (+),"TA100; TA100, 625 μg/Plate",76 Colony/Plate
same,Colony/Plate S-9 Mixture (−),"TA100; TA100, 625 μg/Plate",110 Colony/Plate
same,Colony/Plate S-9 Mixture (+),"TA100; TA100, 1250 μg/Plate",100 Colony/Plate
same,Colony/Plate S-9 Mixture (−),"TA100; TA100, 1250 μg/Plate",112 Colony/Plate
same,Colony/Plate S-9 Mixture (+),"TA100; TA100, 2500 μg/Plate",91 Colony/Plate
same,Colony/Plate S-9 Mixture (−),"TA100; TA100, 2500 μg/Plate",115 Colony/Plate
same,Colony/Plate S-9 Mixture (+),"TA100; TA100, 5000 μg/Plate",78 Colony/Plate
same,Colony/Plate S-9 Mixture (−),"TA100; TA100, 5000 μg/Plate",108 Colony/Plate
same,Colony/Plate S-9 Mixture (+),TA1535; [7],13 Colony/Plate
same,Colony/Plate S-9 Mixture (−),TA1535; [7],18 Colony/Plate
same,Colony/Plate S-9 Mixture (+),TA1535; [8],13 Colony/Plate
same,Colony/Plate S-9 Mixture (−),TA1535; [8],15 Colony/Plate
same,Colony/Plate S-9 Mixture (+),TA1535; [9],7 Colony/Plate
same,Colony/Plate S-9 Mixture (−),TA1535; [9],17 Colony/Plate
same,Colony/Plate S-9 Mixture (+),TA1535; [10],12 Colony/Plate
same,Colony/Plate S-9 Mixture (−),TA1535; [10],17 Colony/Plate
same,Colony/Plate S-9 Mixture (+),TA1535; [11],10 Colony/Plate
same,Colony/Plate S-9 Mixture (−),TA1535; [11],13 Colony/Plate
same,Colony/Plate S-9 Mixture (+),"TA98; TA98, 317.5 μg/Plate",37 Colony/Plate
same,Colony/Plate S-9 Mixture (−),"TA98; TA98, 317.5 μg/Plate",29 Colony/Plate
same,Colony/Plate S-9 Mixture (+),"TA98; TA98, 625 μg/Plate",32 Colony/Plate
same,Colony/Plate S-9 Mixture (−),"TA98; TA98, 625 μg/Plate",29 Colony/Plate
same,Colony/Plate S-9 Mixture (+),"TA98; TA98, 1250 μg/Plate",33 Colony/Plate
same,Colony/Plate S-9 Mixture (−),"TA98; TA98, 1250 μg/Plate",29 Colony/Plate
same,Colony/Plate S-9 Mixture (+),"TA98; TA98, 2500 μg/Plate",37 Colony/Plate
same,Colony/Plate S-9 Mixture (−),"TA98; TA98, 2500 μg/Plate",24 Colony/Plate
same,Colony/Plate S-9 Mixture (+),"TA98; TA98, 5000 μg/Plate",28 Colony/Plate
same,Colony/Plate S-9 Mixture (−),"TA98; TA98, 5000 μg/Plate",26 Colony/Plate
same,Colony/Plate S-9 Mixture (+),"TA1537; TA1537, 317.5 μg/Plate",20 Colony/Plate
same,Colony/Plate S-9 Mixture (−),"TA1537; TA1537, 317.5 μg/Plate",17 Colony/Plate
same,Colony/Plate S-9 Mixture (+),"TA1537; TA1537, 625 μg/Plate",18 Colony/Plate
same,Colony/Plate S-9 Mixture (−),"TA1537; TA1537, 625 μg/Plate",14 Colony/Plate
same,Colony/Plate S-9 Mixture (+),"TA1537; TA1537, 1250 μg/Plate",18 Colony/Plate
same,Colony/Plate S-9 Mixture (−),"TA1537; TA1537, 1250 μg/Plate",10 Colony/Plate
same,Colony/Plate S-9 Mixture (+),"TA1537; TA1537, 2500 μg/Plate",21 Colony/Plate
same,Colony/Plate S-9 Mixture (−),"TA1537; TA1537, 2500 μg/Plate",8 Colony/Plate
same,Colony/Plate S-9 Mixture (+),"TA1537; TA1537, 5000 μg/Plate",21 Colony/Plate
same,Colony/Plate S-9 Mixture (−),"TA1537; TA1537, 5000 μg/Plate",9 Colony/Plate
same,Colony/Plate S-9 Mixture (+),[2]; 317.5 μg/Plate,11 Colony/Plate
same,Colony/Plate S-9 Mixture (−),[2]; 317.5 μg/Plate,10 Colony/Plate
same,Colony/Plate S-9 Mixture (+),[2]; 625 μg/Plate,14 Colony/Plate
same,Colony/Plate S-9 Mixture (−),[2]; 625 μg/Plate,6 Colony/Plate
same,Colony/Plate S-9 Mixture (+),[2]; 1250 μg/Plate,14 Colony/Plate
same,Colony/Plate S-9 Mixture (−),[2]; 1250 μg/Plate,11 Colony/Plate
same,Colony/Plate S-9 Mixture (+),[2]; 2500 μg/Plate,12 Colony/Plate
same,Colony/Plate S-9 Mixture (−),[2]; 2500 μg/Plate,10 Colony/Plate
same,Colony/Plate S-9 Mixture (+),[2]; 5000 μg/Plate,8 Colony/Plate
same,Colony/Plate S-9 Mixture (−),[2]; 5000 μg/Plate,11 Colony/Plate
same,Days for the test (death) Total,ICR mice [3]; 5 mg/kg,0/5
same,Days for the test (death) Total,ICR mice [3]; 10 mg/kg,0/5
same,Days for the Test (death) 3,"ICR mice [3]; 25 mg/kg, day 3",3
same,Days for the Test (death) 4,ICR mice [3]; 25 mg/kg,1
same,Days for the test (death) Total,ICR mice [3]; 25 mg/kg,4/5
same,Days for the test (death) 2,"ICR mice [3]; 50 mg/kg, day 2",3
same,Days for the Test (death) 4,ICR mice [3]; 50 mg/kg,1
same,Days for the Test (death) 5,"ICR mice [3]; 50 mg/kg, day 5",1
same,Days for the test (death) Total,ICR mice [3]; 50 mg/kg,5/5
same,Days for the test (death) 2,ICR mice [4]; 2 mg/kg,3
same,Days for the Test (death) 3,"ICR mice [4]; 2 mg/kg, day 3",1
same,Days for the test (death) 6,"ICR mice [4]; 2 mg/kg, day 6",1
same,Days for the test (death) Total,ICR mice [4]; 2 mg/kg,5/5
same,Days for the test (death) 1,ICR mice [4]; 5 mg/kg,1
same,Days for the test (death) 2,ICR mice [4]; 5 mg/kg,4
same,Days for the test (death) Total,ICR mice [4]; 5 mg/kg,5/5
same,Days for the test (death) 1,ICR mice [4]; 10 mg/kg,4
same,Days for the test (death) 2,ICR mice [4]; 10 mg/kg,1
same,Days for the test (death) Total,ICR mice [4]; 10 mg/kg,5/5
COc1cc2c(c(OC)c1OC)-c1ccc(SC)c(=O)cc1[C@@H](NC(=O)c1cccc(CCl)c1)CC2 [Compound 9],immunosuppressive effect,[1],good immunosuppressive effect
COc1cc2c(c(OC)c1OC)-c1ccc(SC)c(=O)cc1[C@@H](NC(=O)c1ccc(CO[N+](=O)[O-])cc1)CC2 [Compound 11],immunosuppressive effect,[1],good immunosuppressive effect
"Nc1c2ccccc2nc2ccccc12 [Compound 9-AA, 9-aminoacridine]",Colony/Plate S-9 Mixture (+),TA1537; [12],588 Colony/Plate
same,Colony/Plate S-9 Mixture (−),TA1537; [12],175 Colony/Plate
